Here are results for three compounds from ChEMBL document CHEMBL5729211, “Amine compound for inhibiting SSAO/VAP-1 and use thereof” (2022).

Each structure is given as a SMILES string.

The experiment addresses T1, Amine oxidase [copper-containing] 3 (Homo sapiens, UniProt Q16853).
T1 sequence (Q16853 whole entry): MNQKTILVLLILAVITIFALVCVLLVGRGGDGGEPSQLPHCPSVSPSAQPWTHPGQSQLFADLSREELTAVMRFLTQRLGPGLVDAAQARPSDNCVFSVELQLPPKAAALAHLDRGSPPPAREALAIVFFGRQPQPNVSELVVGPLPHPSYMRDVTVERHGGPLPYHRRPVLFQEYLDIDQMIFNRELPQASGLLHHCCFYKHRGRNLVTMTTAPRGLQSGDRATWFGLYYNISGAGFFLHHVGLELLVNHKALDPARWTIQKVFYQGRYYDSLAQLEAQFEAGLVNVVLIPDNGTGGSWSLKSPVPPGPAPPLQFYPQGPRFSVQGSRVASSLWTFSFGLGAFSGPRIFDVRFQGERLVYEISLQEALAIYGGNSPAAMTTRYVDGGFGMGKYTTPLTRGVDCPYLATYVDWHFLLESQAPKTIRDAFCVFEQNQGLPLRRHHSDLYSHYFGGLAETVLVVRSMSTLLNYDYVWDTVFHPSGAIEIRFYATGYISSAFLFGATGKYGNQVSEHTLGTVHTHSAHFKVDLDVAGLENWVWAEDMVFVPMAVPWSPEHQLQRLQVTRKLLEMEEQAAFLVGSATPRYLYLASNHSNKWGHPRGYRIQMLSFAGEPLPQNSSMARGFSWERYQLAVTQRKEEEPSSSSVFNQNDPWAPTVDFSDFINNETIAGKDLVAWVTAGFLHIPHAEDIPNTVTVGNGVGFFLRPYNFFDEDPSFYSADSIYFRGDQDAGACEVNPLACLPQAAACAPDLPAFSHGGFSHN
Kind of experiment: Biological Assay: 1. Determination of Inhibitory Activity of Human Recombinant SSAO/VAP-1Test purpose: The following methods can be used to determine the inhibitory activity of the compounds described in the examples of the invention for human recombinant SSAO/VAP-1.Test Materials:Human recombinant SSAO/VAP-1 (VAP-1, human) purchased from Sigma, Cat. No. SRP6241;Amplex® Red Monoamine Oxidase Assay Kit purchased from Invitrogen, Cat. No. A12214;384-Well plate purchased from Corning, Cat. No. 6005174;Amplex® Red Hydrogen PeroxidePeroxidase Assay Kit purchased from Invitrogen, Cat. No. A22188.Benzylamine hydrochloride purchased from Sigma, Cat. No. B5136-25G;DMSO (Dimethyl Sulfoxide) purchased from Sigma, Cat. No. D2650-100ML;Test Method:The test compound was dissolved in DMSO and diluted to 10 concentrations in 4-fold serial dilution. In 384 well plates, 25 μL of human recombinant SSAO/VAP-1 (1.6 μg/ml) was added to each well. 100 nL of test compounds with different concentrations were added to each well containing human recombinant SSAO/VAP-1 and incubated at room temperature for 30 min. After 30 min incubation, 25 μl of Amplex® red monoamine oxidase assay kit (containing a reaction mixture of 200 μm Amplex Red reagent, 1 U/ml HRP and 1 mm benzylamine hydrochloride) was added to the corresponding well, and incubated at room temperature and dark for 60 min. After 60 min, the relative fluorescence unit (RFU) was read by using PerkinElmer's Envision at 530-560 nm excitation and 590 nm emission. The curve was drawn by using the graph pad prism 5 software, and the IC50 value was calculated. The results were shown in table 1, wherein the compound listed in table 1 is the compound in the preparation examples with the same compound number:
As a reminder, the IC50 is the concentration that gives 50% inhibition. `NC/C(=C\F)COc1ccc2c(c1)CCN(CC1CCOCC1)C2=O`: the concentration for half-maximal inhibition (IC50) is 220 pM. As for `COc1ncc(N2CCc3cc(OC/C(=C/F)CN)ccc3C2=O)cn1`, the figure is 1440 pM; as for `NC/C(=C/F)COc1ccc2c(c1)CCN(c1ccccn1)C2=O`, 770 pM.
